Values joined by “and” are separate entries in the source; they are usually repeats but may differ in a detail not shown here. Equal entries are not always repeated. Where two headings read alike, the source gives them in different places.
Key:
[1] = biological target: Pyridostigmine Antibody; test: Cross-reactivity with pyridostigmine antibody in RIA (competition with labeled pyridostigmine); type: binding, rabbit (male New Zealand white); settings: labeled pyridostigmine 5000 DPM; maximum tested 500 ng
Procedure: Antibodies to the pyridostigmine-BSA immunogen were produced by injecting male New Zealand white rabbits. Prior to injection, the immunogen was emulsified with an equal volume of complete Freund's adjuvant, purchased from Difco Laboratories. The initial immunization consisted of 0.8 mg of protein injected intracutaneously into the back of the rabbits. Booster injections containing 0.8 mg of immunogen and incomplete Freund's adjuvant were administered every one or two months for the next seven months. Blood was collected one week after each booster injection from the central ear vein. The blood was allowed to clot at room temperature and then centrifuged at 1500×g for 15 minutes. The separated serum was stored frozen at -20° C. until assayed for the presence of pyridostigmine antibody. […] FIG. 1 is the antibody dilution curve for pyridostigmine.
In the assay procedure tritiated pyridostigmine having specificity of […] was used as tracer. The dilution of tracer, antisera and pyridostigmine standards were made using 0.01 M phosphate buffer containing 150 mM sodium chloride with a pH of 7.4.. […] Both standard and sample tubes were always analyzed in duplicate. The assay was carried out according to the protocol shown in. Table 1 with the reagents were added to the assay tubes in the order shown in.
According to the protocol for the RIA of the present invention, after the addition of antisera, the contents of the tubes were mixed and incubated for 3 hours at 4° C. The antigen which bound to the antibody was separated by adding 100% saturated ammonium sulfate and centrifuging at 2500×g for 15 minutes. After aspiration of the supernatant, the precipitate was washed one time with 50% saturated ammonium sulfate; then the mixture was centrifuged and the supernatent removed. The precipitate was dissolved in 1.0 ml of distilled water, and the solution was transferred to a scintillation vial containing 10.0 ml of acquasol.
Cross-reactivity of various compounds with pyridostigmine antibody was determined in the RIA. […] Each compound was tested for cross-reactivity with the antibody. The maximum concentration of each compound tested was 500 ng.

[2] = biological solutions, particularly plasma and blood; cited from earlier work
[3] = test system: acetylcholinesterase; settings: cited from earlier work
[4] = cited from earlier work
[5] = test system: patients; settings: cited from earlier work
[6] = Pyridostigmine level in rat sera after intramuscular dose, by RIA; type: in vivo; settings: for concentration at 5 min / concentration at 10 min / concentration at 0.25 h / concentration at 0.5 h / concentration at 1 h / concentration at 2 h / concentration at 3 h / concentration at 4 h: rat, serum, im
Procedure: To further validate the RIA and the antibody specificity of the present invention, additional rat studies were conducted. Male rats were housed two per cage at 23° C. with a twelve hour on-off light cycle. The animals were given food and water ad libitum. After sixty days, food was withheld for twelve hours. Then pyridostigmine was administered (1.0 mg. of pyridostigmine bromide in physiologic saline/Kg) intramuscularly to the rats weighing between 450 and 550 grams.
Groups of three animals were sacrificed by using inhalation anesthetic, Fluothane (0.01% thymol, w/w; and 0.00025% ammonia, w/w) Ayerst Laboratories, New York, N.Y. at various times after dosing, namely at 0, 5, 10, 15, 30, 60 minutes and at 2, 3, 4 and 6 hours. Blood was collected via heart puncture, and serum was separated by centrifugation at 2000 xg for 20 minutes. Table 4 gives the pyridostigmine level in the plasma of three male rats for each time interval as determined by the RIA of the present invention.

For `CN(C)C(=O)Oc1ccc[n+](C)c1` [Pyridostigmine], the “IC 50 (50% inhibition of binding of 3H-pyridostigmine to the antibody)” value [1] is listed as 4 ng, the in vitro hydrolysis [2] is listed as “extensive in vitro hydrolysis” and the cholinesterase inhibition [3] is listed as “reversible cholinesterase inhibitor”. The stability ([4]; alkaline solutions) was “unstable in alkaline solutions”, the solubility ([4]; water and alcohol) was “freely soluble in water and alcohol” and the “side effect on intravenous administration” value ([5]; administered intraveneously) was “thrombophlebitis”. For the same compound, the adverse muscarinic effects ([5]; certain patients) was “nausea, vomitin , diarrhea, miosis, excessive salivation and sweating, abdomimal cramps, bradycardia, bronchial secretion and bronchospasm”, the “toxicity relative to therapeutic levels” value ([5]; clinical use) was “toxic at levels very close to those which produce therapeutic results” and the other side effects ([5]; human, in vivo) was “generalized weakness, muscle cramps, fasciculation, hypotension”. The “effect of substantial over administration” value ([5]; overdose) was “cholinergic crisis leading to death”, the “Pyridostigmine in the Rat Sera, Mean ± S.D.” value ([6]; 0 min, 1.0 mg/kg pyridostigmine bromide i.m., male rats) was 0 ng/mL and the “Pyridostigmine in the Rat Sera, individual animals” value (shortened to “Pyridostigmine … individual animals”) ([6]; 0 min, 1.0 mg/kg pyridostigmine bromide i.m., male rats #1, #2, #3 in order) was 0 ng/mL. The “Pyridostigmine … individual animals” value ([6]; 5 min, 1.0 mg/kg i.m., male rats #1, #2 in order, 1 mg/kg) was 550 ng/mL, the “Pyridostigmine … individual animals” value ([6]; 10 min, 1.0 mg/kg i.m., male rats #1, #2 in order, 1 mg/kg) was 470 ng/mL and the “Pyridostigmine … individual animals” value ([6]; 15 min, 1.0 mg/kg i.m., male rats #1, #2, #3 in order, 1 mg/kg) was 300 ng/mL. For the same compound, the “Pyridostigmine … individual animals” value ([6]; 30 min, 1.0 mg/kg i.m., male rats #1, #2, #3 in order, 1 mg/kg) was 220 ng/mL, the “Pyridostigmine … individual animals” value ([6]; 60 min, 1.0 mg/kg i.m., male rats #1, #2, #3 in order, 1 mg/kg) was 110 ng/mL and the “Pyridostigmine … individual animals” value ([6]; 2 hr, 1.0 mg/kg i.m., male rats #1, #2, #3 in order, 1 mg/kg, 120 min) was 25 ng/mL and 15 ng/mL. The “Pyridostigmine … individual animals” value ([6]; 3 hr, 1.0 mg/kg i.m., male rats #1, #2 in order, 1 mg/kg, 180 min) was 14 ng/mL, the “Pyridostigmine … individual animals” value ([6]; 4 hr, 1.0 mg/kg i.m., male rats #1, #2, #3 in order, 1 mg/kg, 240 min) was 5 ng/mL and 6.5 ng/mL and the concentration at 5 min ([6]; 1 mg/kg, 5 min, 1.0 mg/kg i.m., male rats #1, #2 in order, read-out: Pyridostigmine in the Rat Sera, individual animals) was 600 ng/mL. It also gave a concentration at 5 min ([6]; 1 mg/kg, 5 min, 1.0 mg/kg i.m., male rats, read-out: Pyridostigmine in the Rat Sera, Mean ± S.D.) of 575 ± 35.4 ng/mL, a concentration at 10 min ([6]; 1 mg/kg, 10 min, 1.0 mg/kg i.m., male rats #1, #2 in order, read-out: Pyridostigmine in the Rat Sera, individual animals) of 450 ng/mL and a concentration at 10 min ([6]; 1 mg/kg, 10 min, 1.0 mg/kg i.m., male rats, read-out: Pyridostigmine in the Rat Sera, Mean ± S.D.) of 460 ± 14.1 ng/mL. The concentration at 0.25 h ([6]; 1 mg/kg, 15 min, 1.0 mg/kg i.m., male rats #1, #2, #3 in order, read-out: Pyridostigmine in the Rat Sera, individual animals) was 400 ng/mL, the concentration at 0.25 h ([6]; 1 mg/kg, 15 min, 1.0 mg/kg i.m., male rats, read-out: Pyridostigmine in the Rat Sera, Mean ± S.D.) was 387 ± 80.8 ng/mL and the concentration at 0.5 h ([6]; 1 mg/kg, 30 min, 1.0 mg/kg i.m., male rats #1, #2, #3 in order, read-out: Pyridostigmine in the Rat Sera, individual animals) was 250 ng/mL. It also gave a concentration at 0.5 h ([6]; 1 mg/kg, 30 min, 1.0 mg/kg i.m., male rats, read-out: Pyridostigmine in the Rat Sera, Mean ± S.D.) of 290 ± 96.4 ng/mL, a concentration at 1 h ([6]; 1 mg/kg, 60 min, 1.0 mg/kg i.m., male rats #1, #2, #3 in order, read-out: Pyridostigmine in the Rat Sera, individual animals) of 140 ng/mL and a concentration at 1 h ([6]; 1 mg/kg, 60 min, 1.0 mg/kg i.m., male rats, read-out: Pyridostigmine in the Rat Sera, Mean ± S.D.) of 130 ± 17.3 ng/mL. It also gave a concentration at 2 h ([6]; 1 mg/kg, 2 hr, 1.0 mg/kg i.m., male rats #1, #2, #3 in order, read-out: Pyridostigmine in the Rat Sera, individual animals) of 24 ng/mL, a concentration at 2 h ([6]; 1 mg/kg, 2 hr, 1.0 mg/kg i.m., male rats, read-out: Pyridostigmine in the Rat Sera, Mean ± S.D.) of 21 ± 5.51 ng/mL and a concentration at 3 h ([6]; 1 mg/kg, 3 hr, 1.0 mg/kg i.m., male rats #1, #2 in order, read-out: Pyridostigmine in the Rat Sera, individual animals) of 12 ng/mL. It also gave a concentration at 3 h ([6]; 1 mg/kg, 3 hr, 1.0 mg/kg i.m., male rats, read-out: Pyridostigmine in the Rat Sera, Mean ± S.D.) of 13 ± 1.41 ng/mL, a concentration at 4 h ([6]; 1 mg/kg, 4 hr, 1.0 mg/kg i.m., male rats #1, #2, #3 in order, read-out: Pyridostigmine in the Rat Sera, individual animals) of 7.5 ng/mL and a concentration at 4 h ([6]; 1 mg/kg, 4 hr, 1.0 mg/kg i.m., male rats, read-out: Pyridostigmine in the Rat Sera, Mean ± S.D.) of 6 ± 1.26 ng/mL.
